Laboratory results from US4228187A, “Alkyl and cycloalkylthiophenylalkylaminoalkanols, their salts and the preparation thereof” (priority 1973, dated 1980).

Assays:
Hist. = experiment: Antispasmodic activity, Hist.
[1] = test system: spontaneously hypertensive rat; experiment: Antihypertensive activity (spontaneously hypertensive rat); format: in vivo; details: 15 mg/kg per os
Procedure: (3) spontaneously hypertensive rat; 15 mg/kg per os;
± reduction of systolic pressure up to 10 mm of Hg
+ reduction of systolic pressure of 10 to 20 mm Hg
++ reduction of systolic pressure of at least 20 mm of Hg

BaCl2 = experiment: Antispasmodic activity, BaCl2
guinea pig atria's = experiment: Protective activity against anoxia (guinea pig atria); design: key: scale: + = 10 to 20% increase in survival time; details: increase in survival time
From the text: (5) guinea pig atria's;
+ = increase in survival time of 10 to 20%

Ac.chol. = experiment: Antispasmodic activity, Ac.chol.
DL50 mouse p.o. = details: in vivo, po, limits of reliability (p : 0.95) in brackets
From the text: (1) the limits of reliability (p : 0.95) are given in brackets.

[2] = test system: peripheral vasodilatatory activity; experiment: Vasodilatory effect after intraarterial injection in dog; format: in vivo
Procedure: (1) intraarterial injection in dog (5 animals) 10, 20 and 30 μg/kg.
(2) maximum vasodilatory effect in mm of Hg.
(3) and (4) expressed in seconds.

CCCCCCCCNC(CC)C(O)c1ccc(SC(C)C)cc1 (stereo not shown) [No 8]
Antispasmodic activity CE 100, Hist. (Hist.): 500 μ g γ 60 ml | Anti-hypertensive activity [1]: 0 | Antispasmodic activity CE 100, BaCl2 (BaCl2): 100 μ g γ 60 ml | Protective activity against anoxia (guinea pig atria's): 0 | Antispasmodic activity CE 100, Ac.chol. (Ac.chol.): 500 μ g γ 60 ml | LD50 (DL50 mouse p.o.): > 4000 mg/kg

CCCCCCNC(C)C(O)c1ccc(SC(C)C)cc1 (stereo not shown) [No 28]
LD50 (DL50 mouse p.o.): 1450 mg/kg

CCCCNC(CC)C(O)c1ccc(SCC)cc1 (stereo not shown) [No 19]
Antispasmodic activity CE 100, Hist. (Hist.): 1000 μ g γ 60 ml | Antispasmodic activity CE 100, BaCl2 (BaCl2): 500 μ g γ 60 ml | Protective activity against anoxia (guinea pig atria's): 0 | Antispasmodic activity CE 100, Ac.chol. (Ac.chol.): 1000 μ g γ 60 ml | LD50 (DL50 mouse p.o.): 640 mg/kg

CCC(C)NC(C)C(O)c1ccc(SC2CCCCC2)cc1 (stereo not shown) [No 16]
Antispasmodic activity CE 100, Hist. (Hist.): 500 μ g γ 60 ml | Antispasmodic activity CE 100, BaCl2 (BaCl2): 200 μ g γ 60 ml | Antispasmodic activity CE 100, Ac.chol. (Ac.chol.): 200 μ g γ 60 ml

CCC(NC(C)C)C(O)c1ccc(SC2CCCCC2)cc1 (stereo not shown) [No 27]
Antispasmodic activity CE 100, Hist. (Hist.): 500 μ g γ 60 ml | Antispasmodic activity CE 100, BaCl2 (BaCl2): 200 μ g γ 60 ml | Antispasmodic activity CE 100, Ac.chol. (Ac.chol.): 200 μ g γ 60 ml

CCCCCCCCNC(CC)C(O)c1ccc(SC)cc1 (stereo not shown) [No 18]
Antispasmodic activity CE 100, Hist. (Hist.): 200 μ g γ 60 ml | Anti-hypertensive activity [1]: 0 | Antispasmodic activity CE 100, BaCl2 (BaCl2): 500 μ g γ 60 ml | Protective activity against anoxia (guinea pig atria's): 0 | Antispasmodic activity CE 100, Ac.chol. (Ac.chol.): 200 μ g γ 60 ml | LD50 (DL50 mouse p.o.): ~3500 mg/kg

CC(NC(C)(C)C)C(O)c1ccc(SC2CCCCC2)cc1 (stereo not shown) [No 21]
Antispasmodic activity CE 100, Hist. (Hist.): 500 μ g γ 60 ml | Anti-hypertensive activity [1]: 0 | Antispasmodic activity CE 100, BaCl2 (BaCl2): 500 μ g γ 60 ml | Antispasmodic activity CE 100, Ac.chol. (Ac.chol.): 100 μ g γ 60 ml

1-(4-methylthiophenyl)-2-n-octylaminopropanol [No 11]
Antispasmodic activity CE 100, Hist. (Hist.): 1000 μ g γ 60 ml | Antispasmodic activity CE 100, BaCl2 (BaCl2): > 1000 μ g γ 60 ml | Protective activity against anoxia (guinea pig atria's): 0 | Antispasmodic activity CE 100, Ac.chol. (Ac.chol.): 1000 μ g γ 60 ml

CCCCNC(C)C(O)c1ccc(SC)cc1 (stereo not shown) [No 10]
Antispasmodic activity CE 100, Hist. (Hist.): 1000 μ g γ 60 ml | Anti-hypertensive activity [1]: 0 | Antispasmodic activity CE 100, BaCl2 (BaCl2): 1000 μ g γ 60 ml | Protective activity against anoxia (guinea pig atria's): + (increase in survival time of 10 to 20%) | Antispasmodic activity CE 100, Ac.chol. (Ac.chol.): 500 μ g γ 60 ml | LD50 (DL50 mouse p.o.): ~100 mg/kg

CCC(NC(C)C)C(O)c1ccc(SC(C)C)cc1 (stereo not shown) [No 7]
Antispasmodic activity CE 100, Hist. (Hist.): 1000 μ g γ 60 ml | Antispasmodic activity CE 100, BaCl2 (BaCl2): 1000 μ g γ 60 ml | Protective activity against anoxia (guinea pig atria's): 0 | Antispasmodic activity CE 100, Ac.chol. (Ac.chol.): 200 μ g γ 60 ml

CCC(C)NC(C)C(O)c1ccc(SC(C)C)cc1 (stereo not shown) [No 4]
Antispasmodic activity CE 100, Hist. (Hist.): 1000 μ g γ 60 ml | Antispasmodic activity CE 100, BaCl2 (BaCl2): 500 μ g γ 60 ml | Protective activity against anoxia (guinea pig atria's): 0 | Antispasmodic activity CE 100, Ac.chol. (Ac.chol.): 1000 μ g γ 60 ml | LD50 (DL50 mouse p.o.): 520 mg/kg

CCCCNC(CC)C(O)c1ccc(SC(C)C)cc1 (stereo not shown) [No 6]
Antispasmodic activity CE 100, Hist. (Hist.): 500 μ g γ 60 ml | Antispasmodic activity CE 100, BaCl2 (BaCl2): 1000 μ g γ 60 ml | Protective activity against anoxia (guinea pig atria's): 0 | Antispasmodic activity CE 100, Ac.chol. (Ac.chol.): 100 μ g γ 60 ml | LD50 (DL50 mouse p.o.): > 1000 mg/kg

CCCCCCCNC(C)C(O)c1ccc(SC(C)C)cc1 (stereo not shown) [No 29]
LD50 (DL50 mouse p.o.): ~2400 mg/kg

CC(C)CSc1ccc(C(O)C(C)NC(C)C)cc1 (stereo not shown) [No 22]
Antispasmodic activity CE 100, Hist. (Hist.): 500 μ g γ 60 ml | Antispasmodic activity CE 100, BaCl2 (BaCl2): 500 μ g γ 60 ml | Protective activity against anoxia (guinea pig atria's): 0 | Antispasmodic activity CE 100, Ac.chol. (Ac.chol.): 1000 μ g γ 60 ml | LD50 (DL50 mouse p.o.): 1280 mg/kg

COc1ccc(Cc2nccc3cc(OC)c(OC)cc23)cc1OC [papaverine, reference compound]
Amplitude (maximum vasodilatory effect) ([2]; 10 μg/kg): 40 mm of Hg | Duration of effect ([2]; 10 μg/kg): 43 s | Amplitude (maximum vasodilatory effect) ([2]; 20 μg/kg): 51 mm of Hg | Duration of effect ([2]; 20 μg/kg): 45 s | Amplitude (maximum vasodilatory effect) ([2]; 30 μg/kg): 54 mm of Hg | Duration of effect ([2]; 30 μg/kg): 47 s

CCCCCCCCNC(C)C(O)c1ccc(SC)cc1 (stereo not shown) [No 11]
Antispasmodic activity CE 100, Hist. (Hist.): 200 μ g γ 60 ml | Anti-hypertensive activity [1]: ++ (reduction of systolic pressure of at least 20 mm of Hg) | Antispasmodic activity CE 100, BaCl2 (BaCl2): 100 μ g γ 60 ml | Protective activity against anoxia (guinea pig atria's): 0 | Antispasmodic activity CE 100, Ac.chol. (Ac.chol.): 200 μ g γ 60 ml | LD50 (DL50 mouse p.o.): 970 mg/kg

CC(C(O)c1ccc(SC2CCCCC2)cc1)N1CCCCC1 (stereo not shown) [No 33]
Antispasmodic activity CE 100, Hist. (Hist.): > 1000 μ g γ 60 ml | Antispasmodic activity CE 100, BaCl2 (BaCl2): > 1000 μ g γ 60 ml | Antispasmodic activity CE 100, Ac.chol. (Ac.chol.): > 1000 μ g γ 60 ml

CCCCNC(C)C(O)c1ccc(SC2CCCCC2)cc1 (stereo not shown) [No 14]
Antispasmodic activity CE 100, Hist. (Hist.): 500 μ g γ 60 ml | Antispasmodic activity CE 100, BaCl2 (BaCl2): 200 μ g γ 60 ml | Antispasmodic activity CE 100, Ac.chol. (Ac.chol.): 100 μ g γ 60 ml

CCCCCCCCNC(C)C(O)c1ccc(SC2CCCC2)cc1 (stereo not shown) [No 32]
Anti-hypertensive activity [1]: ++ (reduction of systolic pressure of at least 20 mm of Hg) | LD50 (DL50 mouse p.o.): > 4000 mg/kg

CCCCNC(C)C(O)c1ccc(SCC)cc1 (stereo not shown) [No 12]
Antispasmodic activity CE 100, Hist. (Hist.): 1000 μ g γ 60 ml | Antispasmodic activity CE 100, BaCl2 (BaCl2): 1000 μ g γ 60 ml | Protective activity against anoxia (guinea pig atria's): 0 | Antispasmodic activity CE 100, Ac.chol. (Ac.chol.): 500 μ g γ 60 ml | LD50 (DL50 mouse p.o.): 312 mg/kg

CC(C)CSc1ccc(C(O)C(C)NC(C)(C)C)cc1 (stereo not shown) [No 24]
Antispasmodic activity CE 100, Hist. (Hist.): 200 μ g γ 60 ml | Antispasmodic activity CE 100, BaCl2 (BaCl2): 500 μ g γ 60 ml | Antispasmodic activity CE 100, Ac.chol. (Ac.chol.): 1000 μ g γ 60 ml

CCC(C)NC(C)C(O)c1ccc(SCC(C)C)cc1 (stereo not shown) [No 23]
Antispasmodic activity CE 100, Hist. (Hist.): 200 μ g γ 60 ml | Antispasmodic activity CE 100, BaCl2 (BaCl2): 500 μ g γ 60 ml | Protective activity against anoxia (guinea pig atria's): 0 | Antispasmodic activity CE 100, Ac.chol. (Ac.chol.): 200 μ g γ 60 ml

CC(Cc1ccccc1)NC(C)C(O)c1ccc(SC(C)C)cc1 (stereo not shown) [No 35]
Antispasmodic activity CE 100, Hist. (Hist.): 200 μ g γ 60 ml | Anti-hypertensive activity [1]: ± (reduction of systolic pressure up to 10 mm of Hg) | Antispasmodic activity CE 100, BaCl2 (BaCl2): 500 μ g γ 60 ml | Antispasmodic activity CE 100, Ac.chol. (Ac.chol.): 500 μ g γ 60 ml | LD50 (DL50 mouse p.o.): 2100 mg/kg

CCCCCCCCNC(C)C(O)c1ccc(SC2CCCCC2)cc1 (stereo not shown) [No 15]
Antispasmodic activity CE 100, Hist. (Hist.): 1000 μ g γ 60 ml | Anti-hypertensive activity [1]: ++ (reduction of systolic pressure of at least 20 mm of Hg) | Antispasmodic activity CE 100, BaCl2 (BaCl2): 1000 μ g γ 60 ml | Antispasmodic activity CE 100, Ac.chol. (Ac.chol.): 500 μ g γ 60 ml | LD50 (DL50 mouse p.o.): ~5000 mg/kg

CCCCNC(C)C(O)c1ccc(SCC(C)C)cc1 (stereo not shown) [No 25]
Antispasmodic activity CE 100, Hist. (Hist.): 200 μ g γ 60 ml | Antispasmodic activity CE 100, BaCl2 (BaCl2): 200 μ g γ 60 ml | Protective activity against anoxia (guinea pig atria's): 0 | Antispasmodic activity CE 100, Ac.chol. (Ac.chol.): 100 μ g γ 60 ml | LD50 (DL50 mouse p.o.): 1350 mg/kg

CC(C)NC(C)C(O)c1ccc(SC(C)C)cc1 (stereo not shown) [No 3]
LD50 (DL50 mouse p.o.): 630 mg/kg

CCC(C(O)c1ccc(SC2CCCCC2)cc1)N1CCCCC1 (stereo not shown) [No 34]
Antispasmodic activity CE 100, Hist. (Hist.): 1000 μ g γ 60 ml | Antispasmodic activity CE 100, BaCl2 (BaCl2): 200 μ g γ 60 ml | Antispasmodic activity CE 100, Ac.chol. (Ac.chol.): 100 μ g γ 60 ml

CC(C)Sc1ccc(C(O)C(C)NC(C)(C)C)cc1 (stereo not shown) [No 5]
Antispasmodic activity CE 100, Hist. (Hist.): > 1000 μ g γ 60 ml | Antispasmodic activity CE 100, BaCl2 (BaCl2): 1000 μ g γ 60 ml | Protective activity against anoxia (guinea pig atria's): 0 | Antispasmodic activity CE 100, Ac.chol. (Ac.chol.): 1000 μ g γ 60 ml

CCCCCCCCNC(C)C(O)c1ccc(SCC(C)C)cc1 (stereo not shown) [No 26]
Antispasmodic activity CE 100, Hist. (Hist.): 200 μ g γ 60 ml | Antispasmodic activity CE 100, BaCl2 (BaCl2): 200 μ g γ 60 ml | Protective activity against anoxia (guinea pig atria's): 0 | Antispasmodic activity CE 100, Ac.chol. (Ac.chol.): 200 μ g γ 60 ml | LD50 (DL50 mouse p.o.): > 4000 mg/kg

CCCCNC(C)C(O)c1ccc(SC(C)C)cc1 (stereo not shown) [No 1]
Antispasmodic activity CE 100, Hist. (Hist.): 500 μ g γ 60 ml | Antispasmodic activity CE 100, BaCl2 (BaCl2): 500 μ g γ 60 ml | Protective activity against anoxia (guinea pig atria's): 0 | Antispasmodic activity CE 100, Ac.chol. (Ac.chol.): 1000 μ g γ 60 ml | LD50 (DL50 mouse p.o.): 680 mg/kg

CCC(C)NC(CC)C(O)c1ccc(SC(C)C)cc1 (stereo not shown) [No 9]
Antispasmodic activity CE 100, Hist. (Hist.): 1000 μ g γ 60 ml | Antispasmodic activity CE 100, BaCl2 (BaCl2): 500 μ g γ 60 ml | Protective activity against anoxia (guinea pig atria's): ++ (increase in survival time of more than 25%) | Antispasmodic activity CE 100, Ac.chol. (Ac.chol.): 200 μ g γ 60 ml
